Key:
[1] = tested on: A549 cells (human lung carcinoma cell line); assay: A549 cell proliferation MTT assay; assay type: cell-based; settings: 120 h, 5 days incubation, MTT readout at 550 nm
Procedure: A549 cells (human lung carcinoma cell line) were cultivated in RPMI 1640, 2.5% FCS, 2 mM glutamine, 100 u/ml Penicillin, 100 μg/ml Streptomycin. For the assay the cells were seeded in 384 well plates, 900 cells per well, in the same medium. The next day compounds (dissolved 10 mM in DMSO) were added in various concentrations ranging from 3 μM to 0.15 nM (10 concentrations, 1:3 diluted). After 5 days the MTT assay was done mainly according to the instructions of the manufacturer (Cell proliferation kit I, MTT, from Roche Molecular Biochemicals). In brief, MTT labeling reagent was added to a final concentration of 0.5 mg/ml, added and incubated for 4 hrs at 37 C, 5% CO2. During this incubation time purple formazan crystals are formed. After addition of the solubilization solution (20% SDS in 0.02 M HCl) the plates were incubated overnight at 37° C., 5% CO2.
After careful mixing the plates were measured in Victor 2 (scanning multiwell spectrophotometer, Wallac) at 550 nm.
A decrease in number of living cells results in a decrease in the total metabolic activity in the sample. The decrease directly correlates to the amount of purple color resulting from the solubilization of the purple formazan crystals.
A549: 900 cells in 60 μl per well of 384 well plate (Greiner) • Medium: RPMI 1640, 2.5% FCS, glutamine, pen/strep. • Incubate 1 day at 37° C.
Induction: • Dilution of compound in DMSO: 3 μl 10 mM+27 μl DMSO, dilute 1:3 • Add 2 μl of compound dilution row to 95 μl of medium • Add 10 μl of compound dilution to 60 μl medium in test plate ? 0.3% DMSO per well • Incubate 120 h (5 days) at 37° C., 5% CO2
Analysis: • Add 7 μl MTT (5 mg/ml/well), incubate 4 h at 37° C. • Add 30 μl lysis buffer (20% SDS, 0.04 N HCl) per well • Incubate overnight at 37° C.
Measurement: • Victor 2; 550 nm • Determination of IC50 was done using XL-fit.

An IC50 [1] of 37 nM and a melting point of 163 to 165 °C were found for `FC(F)(F)c1ccc(/C=C/c2nc(COc3ccc(-c4nc(Cn5ccnn5)cs4)cc3)co2)cc1` [Example 7, 1-[2-(4-{2-[(E)-2-(4-Trifluoromethyl-phenyl)-vinyl]-oxazol-4-ylmethoxy}-phenyl) -thiazol-4-ylmethyl]-1H-[1,2,3]triazole] in this work.
A melting point of 178 °C was found for `COc1ccc(/C=C/c2nc(COc3ccc(-c4nc(Cn5ccnn5)co4)cc3)co2)cc1` [Example 1, 1-[2-(4-{2-[(E)-2-(4-Methoxy-phenyl)-vinyl]-oxazol-4-ylmethoxy}-phenyl)-oxazol-4-ylmethyl]-1H-[1,2,3]triazole] in this work.
An IC50 [1] of 46 nM and a melting point of 166 to 172 °C were found for `FC(F)(F)Oc1ccc(/C=C/c2nc(COc3ccc(-c4nc(Cn5ccnn5)co4)cc3)co2)cc1` [Example 2, 1-[2-(4-{2-[(E)-2-(4-Trifluoromethoxy-phenyl)-vinyl]-oxazol-4-ylmethoxy}-phenyl) -oxazol-4-ylmethyl]-1H-[1,2,3]triazole] in this work.
A melting point of 133 to 135 °C was found for `Fc1cc(C(F)(F)F)ccc1/C=C/c1nc(COc2ccc(-c3nc(Cn4ccnc4)cs3)cc2)co1` [Example 12, 2-[(E)-2-(2-Fluoro-4-trifluoromethyl-phenyl)-vinyl]-4-[4-(4-imidazol-1-ylmethyl-thiazole-2-yl)-phenoxymethyl]-oxazole] in this work.
A melting point of 150 to 153 °C was found for `Fc1cc(C(F)(F)F)ccc1/C=C/c1nc(COc2ccc(-c3nc(Cn4ccnc4)co3)cc2)co1` [Example 13, 2-[(E)-2-(2-Fluoro-4-trifluoromethyl-phenyl)-vinyl]-4-[4-(4-imidazol-1-ylmethyl-oxazol-2-yl)-phenoxymethyl]-oxazole] in this work.
An IC50 [1] of 70 nM and a melting point of 180 to 182 °C were found for `Fc1cc(C(F)(F)F)ccc1/C=C/c1nc(COc2ccc(-c3nc(Cn4ccnn4)cs3)cc2)co1` [Example 8, 1-[2-(4-{2-[(E)-2-(2-Fluoro-4-trifluoromethyl-phenyl)-vinyl]-oxazol-4-ylmethoxy}-phenyl)-thiazol-4-ylmethyl]-1H-[1,2,3]triazole] in this work.
A melting point of 144 to 145 °C was found for `FC(F)(F)Sc1ccc(/C=C/c2nc(COc3ccc(-c4nc(Cn5ccnc5)co4)cc3)co2)cc1` [Example 16, 1-[2-(4-{2-[(E)-2-(−4-Trifluoromethylsulfanyl-phenyl)-vinyl]-oxazol-4-ylmethoxy}-phenyl)-oxazol-4-ylmethyl]-1H-imidazole] in this work.
An IC50 [1] of 11 nM and a melting point of 193 to 194 °C were found for `Fc1cc(Cl)ccc1/C=C/c1nc(COc2ccc(-c3nc(Cn4ccnn4)co3)cc2)co1` [Example 9, 1-[2-(4-{2-[(E)-2-(4-Chloro-2-fluoro-phenyl)-vinyl]-oxazol-4-ylmethoxy}-phenyl)oxazole-4-ylmethyl]-1H-[1,2,3]triazole] in this work.
A melting point of 166 to 167 °C was found for `Fc1cc(Cl)ccc1/C=C/c1nc(COc2ccc(-c3nc(Cn4ccnc4)co3)cc2)co1` [Example 14, 2-[(E)-2-(2-Fluoro-4-chloro-phenyl)-vinyl]-4-[4-(4-imidazol-1-ylmethyl-oxazol-2-yl)phenoxymethyl]-oxazole] in this work.
A melting point of 172 to 174 °C was found for `FS(F)(F)(F)(F)c1ccc(/C=C/c2nc(COc3ccc(-c4nc(Cn5ccnn5)co4)cc3)co2)cc1` [Example 19, 1-[2-(4-{2-[(E)-2-(4-Pentafluorosulfanyl-phenyl)-vinyl]-oxazol-4-ylmethoxy}-phenyl) -oxazol-4-ylmethyl]-1H-[1,2,3]triazole] in this work.
A melting point of 146 to 148 °C was found for `FC(F)(F)c1ccc(/C=C/c2nc(COc3ccc(-c4nc(Cn5ccnn5)cs4)cc3)cs2)cc1` [Example 11, 1-[2-(4-{2-[(E)-2-(4-Trifluoromethyl-phenyl)-vinyl]-thiazol-4-ylmethoxy}-phenyl) -thiazole-4-ylmethyl]-1H-[1,2,3]triazole] in this work.
An IC50 [1] of 7 nM and a melting point of 152 to 154 °C were found for `Fc1cc(C(F)(F)F)ccc1/C=C/c1nc(COc2ccc(-c3nc(Cn4ccnn4)co3)cc2)co1` [Example 6, 1-[2-(4-{2-[(E)-2-(2-Fluoro-4-trifluoromethyl-phenyl)-vinyl]-oxazol-4-ylmethoxy}-phenyl)-oxazol-4-ylmethyl]-1H-[1,2,3]triazole] in this work.
An IC50 [1] of 69 nM and a melting point of 208 to 210 °C were found for `Clc1ccc(/C=C/c2nc(COc3ccc(-c4nc(Cn5ccnn5)co4)cc3)co2)cc1` [Example 5, 1-[2-(4-{2-[(E)-2-(4-Chloro-phenyl)-vinyl]-oxazol-4-ylmethoxy}-phenyl)-oxazol-4-ylmethyl]-1H-[1,2,3]triazole] in this work.
An IC50 [1] of 45 nM and a melting point of 170 °C were found for `FC(F)(F)c1ccc(/C=C/c2nc(COc3ccc(-c4nc(Cn5ccnn5)co4)cc3)co2)cc1` [Example 4, 1-[2-(4-{2-[(E)-2-(4-Trifluoromethyl-phenyl)-vinyl]-oxazol-4-ylmethoxy}-phenyl) -oxazol-4-ylmethyl]-1H-[1,2,3]triazole] in this work.
A melting point of 170 to 172 °C was found for `OCCc1nccn1Cc1coc(-c2ccc(OCc3coc(/C=C/c4ccc(Cl)cc4F)n3)cc2)n1` [Example 18, 2-{1-[2-(4-{2-[(E)-2-(4-Chloro-2-fluoro-phenyl)-vinyl]-oxazol-4-ylmethoxy}-phenyl)-oxazole-4-ylmethyl]-1H-imidazol-2-yl}-ethanol] in this work.
An IC50 [1] of 46 nM and a melting point of 172 to 173 °C were found for `FC(F)(F)Sc1ccc(/C=C/c2nc(COc3ccc(-c4nc(Cn5ccnn5)co4)cc3)co2)cc1` [Example 3, 1-[2-(4-{2-[(E)-2-(−4-Trifluoromethylsulfanyl-phenyl)-vinyl]-oxazol-4-ylmethoxy}-phenyl)-oxazol-4-ylmethyl]-1H-[1,2,3]triazole] in this work.
A melting point of 167 to 169 °C was found for `[O-][S+](c1ccc(/C=C/c2nc(COc3ccc(-c4nc(Cn5ccnn5)co4)cc3)co2)cc1)C(F)(F)F` (stereo not shown) [Example 15, 1-[2-(4-{2-[(E)-2-(−4-Trifluoromethylsulfinyl-phenyl)-vinyl]-oxazol-4-ylmethoxy}-phenyl)-oxazol-4-ylmethyl]-1H-[1,2,3]triazole] in this work.
An IC50 [1] of 60 nM and a melting point of 179 to 181 °C were found for `FC(F)(F)c1ccc(/C=C/c2nc(COc3ccc(-c4nc(Cn5ccnn5)co4)cc3)cs2)cc1` [Example 10, 1-[2-(4-{2-[(E)-2-(4-Trifluoromethyl-phenyl)-vinyl]-thiazol-4-ylmethoxy}-phenyl) -oxazol-4-ylmethyl]-1H-[1,2,3]triazole] in this work.
A melting point of 134 to 136 °C was found for `[O-][S+](c1ccc(/C=C/c2nc(COc3ccc(-c4nc(Cn5ccnc5)co4)cc3)co2)cc1)C(F)(F)F` (stereo not shown) [Example 17, 1-[2-(4-{2-[(E)-2-(−4-Trifluoromethylsulfinyl-phenyl)-vinyl]-oxazol-4-ylmethoxy}-phenyl)-oxazol-4-ylmethyl]-1H-imidazole] in this work.

Reference: patent US7259262B2, “Arylazole derivatives, their manufacture and use as pharmaceutical agents” (Hoffmann-La Roche Inc., priority 2003, dated 2007)
